In patent US20070213402A1, “Compounds which interact with the thyroid hormone receptor for the treatment of fibrotic disease” (priority 1998, published 2007):

Legend:
[1] = test system: collagenase (MMP-1) promoter; experiment: Experiment 4.1: collagenase (MMP-1) promoter (-517/+63)-luciferase in MCF-7 cells, endogenous thyroid hormone receptors; type: cell-based, human; conditions: MCF-7, endogenous thyroid hormone receptors; for % Control: Blank = 100
Procedure: (§1) These experiments were intended to identify the receptor through which compounds I might be acting to block collagenase promoter activity.
(§2) Transfection procedure hereinbefore described with CV1 cells was repeated using MCF-7 mammary breast cancer cells derived from pleural effusion from a breast cancer patient. Additionally, each experiment included transfection of a plasmid (at 8 ug per 5×10^5 cells) containing the −517/+63 section of the collagenase (MMP-1) promoter linked to the luciferase gene. TPA was used as above to stimulate activity of the collagenase promoter resulting in luciferase production. Compound II or 3,3,5-triiodo-L-thyronine (T3) was included (both at 10^−8M), the latter being a known ligand for the thyroid hormone receptor.
Experiment 4.1. As MCF-7 cells express endogenous thyroid hormone receptors, only the collagenase promoter plasmid (at 8 ug per 5×10^5 cells) was transfected into the MCF-7 cells.

[2] = test system: collagenase (MMP-1) promoter; experiment: Experiment 4.2: collagenase (MMP-1) promoter-luciferase in MCF-7 cells with antisense construct for the thyroid receptor; type: cell-based, human; conditions: MCF-7 + thyroid receptor antisense; for % Control: Blank = 100
Procedure: as §1, §2
Experiment 4.2. The procedure of Experiment 4.1 was repeated except that a second plasmid, containing 662 bp antisense construct for the thyroid receptor (at 8 ug per 5×10^5 cells) was additionally transfected.

[3] = substance 10^-8M added with TPA
[4] = substance added alone, CPII 10^-8M

## CC(C)(OCc1ccc(-c2ccc(Cl)cc2)cc1)C(=O)O [Compound II, 1-[4-(4-chlorophenyl)benzyloxy]-1-methylpropionic acid]
[1]
  effect on TPA stimulation of luciferase production, in words: able further to enhance TPA stimulation of luciferase production
[1]; [3]
  Raw Counts: 352376 counts
  % Control: 2802.2%
[1]; substance added alone
  % Control: 47.9%
[1]; [4]
  Raw Counts: 6029 counts
[2]
  luciferase production when thyroid hormone receptor synthesis is inhibited, in words: substantially prevented
[2]; [3]
  Raw Counts: 8716 counts
  % Control: 597.8%
[2]; substance added alone
  % Control: 163.2%
[2]; [4]
  Raw Counts: 2379 counts
